Experimental data as given in patent US20090176837A1, “COMPOUNDS WITH ACTIVITY AT RETINOIC ACID RECEPTORS” (SONY CORPORATION, priority 2006, published 2009).
Read-outs that look alike come from different tables or passages of the source. One block for each compound: values may come before it.

Molecular target: T1, RARβ2 (Homo sapiens, UniProt P10826)
T1 construct: expressed in transfected cells
T1 sequence (P10826 1-448 isoform P10826-2): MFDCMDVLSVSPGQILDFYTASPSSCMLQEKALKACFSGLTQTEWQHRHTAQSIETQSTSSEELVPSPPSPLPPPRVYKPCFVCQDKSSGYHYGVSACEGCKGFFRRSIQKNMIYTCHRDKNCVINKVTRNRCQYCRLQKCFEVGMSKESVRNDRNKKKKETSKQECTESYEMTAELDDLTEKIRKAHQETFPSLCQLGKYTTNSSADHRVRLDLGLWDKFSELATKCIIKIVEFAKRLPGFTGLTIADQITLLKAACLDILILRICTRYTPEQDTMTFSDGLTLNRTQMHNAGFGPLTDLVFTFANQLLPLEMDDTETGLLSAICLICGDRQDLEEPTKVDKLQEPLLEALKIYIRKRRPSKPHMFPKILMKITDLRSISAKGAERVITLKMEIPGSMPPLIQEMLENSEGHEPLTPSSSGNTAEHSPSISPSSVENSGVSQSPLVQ
Assay: Receptor Selection and Amplification Technology (R-SAT) functional receptor assay
Type: cell-based
From the text: The functional receptor assay, Receptor Selection and Amplification Technology (R-SAT), was used to investigate the pharmacological properties of known and novel RARβ agonists and antagonists.
Efficacy is relative to the maximal response of the reference ligand, Am-580.

[1] = Table 1, efficacy relative to the maximal response of the reference ligand Am-580
[2] = Table 1, efficacy relative to the maximal response of the reference ligand Am-580, read-out: % Eff.
[3] = Table 1, read-out: pEC50 (converted)
[4] = Table 2, efficacy relative to the maximal response of the reference ligand Am-580, read-out: % Eff.
[5] = Table 2, read-out: pEC50 (converted)
[6] = Table 2, efficacy relative to the maximal response of the reference ligand Am-580

- Emax [2]: 39%
- EC50 [3]: 2.29 nM
Compound: CCCCCCCCc1ccc(-c2ccc(C(=O)O)cc2C)cc1 [Compound 1, 2-Methyl-4′-octyl[1,1′-hiphenyl]-4-carboxylic acid]

- Emax [2]: 126%
- EC50 [3]: 7.94 nM
Compound: CCCCCCCCCc1ccc(-c2ccc(C(=O)O)cc2)cc1 [Compound 2, 4′-Nonyl-biphenyl-4-carboxylic acid]

- pEC50 (Table 1): 7.82
- Emax [2]: 44%
Compound: CCCCCc1ccc(-c2ccc(C(=O)O)cc2)cc1 [Compound 4]

- pEC50 (Table 1): 7.59
- Emax [2]: 76%
Compound: CCCCCCCc1ccc(-c2ccc(C(=O)O)cc2)cc1 [Compound 9]

- % Eff. [1]: 64%
- EC50 [3]: 26.3 nM
Compound: CCCCCCCc1ccc(-c2ccc(C(=O)O)cc2)cc1 [Compound 10, 4′-Heptyl[1,1′-biphenyl]-4-carboxylic acid]

- pEC50 (Table 1): 7.54
- Emax [2]: 72%
Compound: CCCCCCOc1ccc(-c2ccc(C(=O)O)cc2)cc1 [Compound 12]

- pEC50 (Table 2): 7.38
- % Eff. [6]: 93%
Compound: CCCCCCCCc1ccc(-c2ccc(C(=O)OCCc3ccccn3)cc2)cc1 [Compound 14]

- pEC50 (Table 1): 7.37
- Emax [2]: 76%
Compound: CCCCCCCCc1ccc(-c2ccc(C(=O)n3cnc(NC(C)=O)n3)cc2)cc1 [Compound 15]

- pEC50 (Table 1): 7.34
- Emax [2]: 37%
Compound: CCCCCCc1ccc(-c2ccc(C(=O)O)cc2)cc1 [Compound 16]

- % Eff. [6]: 33%
- EC50 [5]: 45.7 nM
Compound: CCCCCCCc1ccc(-c2ccc(C(=O)OCc3ccco3)cc2)cc1 [Compound 17, 4′-Heptyl-biphenyl-4-carboxylic acid furan-2-ylmethyl Ester]

- Emax [4]: 36%
- EC50 [5]: 52.5 nM
Compound: CCCCCCCc1ccc(-c2ccc(C(=O)OCCC#N)cc2)cc1 [Compound 19, 4′-Heptyl-biphenyl-4-carboxylic acid 2-cyano-ethyl ester]

- pEC50 (Table 1): 7.26
- Emax [2]: 98%
Compound: CCCCCCCCCCOc1ccc(-c2ccc(C(=O)O)cc2)cc1 [Compound 20]

- pEC50 (Table 2): 7.26
- % Eff. [6]: 106%
Compound: CCCCCCCc1ccc(-c2ccc(C(=O)OCc3ccco3)cc2)cc1 [Compound 21]

- Emax [2]: 36%
- EC50 [3]: 57.5 nM
Compound: CCCCCCCc1ccc(-c2ccc(C(=O)O)cc2F)cc1 [Compound 22, 2-Fluoro-4′-heptyl[1,1′-biphenyl]-4-carboxylic acid]

- Emax [4]: 46%
- EC50 [5]: 60.3 nM
Compound: CCCCCCCOc1ccc(-c2ccc(C(=O)OCCC#N)cc2)cc1 [Compound 23, 4′-Heptyloxy-biphenyl-4-carboxylic acid 2-cyano-ethyl ester]

- pEC50 (Table 1): 7.21
- Emax [2]: 58%
Compound: CCCCCCCOc1ccc(-c2ccc(C(=O)O)cc2)cc1 [Compound 24]

- pEC50 (Table 1): 7.20
- Emax [2]: 65%
Compound: CC(C)CCCCOc1ccc(-c2ccc(C(=O)O)cc2)cc1 [Compound 25, 4′-(5-Methyl-hexyloxy)-biphenyl-4-carboxylic acid]

- pEC50 (Table 2): 7.09
- % Eff. [6]: 70%
Compound: CCCCCCCCc1ccc(-c2ccc(C(=O)OCCc3ccccn3)cc2)cc1 [Compound 28]

- pEC50 (Table 1): 7.08
- Emax [2]: 78%
Compound: CCCCCCCCc1ccc(-c2ccc(C(=O)Nc3ccc(C)cn3)cc2)cc1 [Compound 29]

- Emax [2]: 80%
- EC50 [3]: 95.5 nM
Compound: CCCCCCCCc1ccc(-c2ccc(C(=O)C(=O)O)cc2)cc1 [Compound 31, (4′-Octyl-biphenyl-4-yl)-oxo-acetic acid]

- pEC50 (Table 1): 7.02
- Emax [2]: 70%
Compound: CCCCCCCCOc1ccc(-c2ccc(C(=O)O)cc2)cc1 [Compound 32]

- Emax [4]: 71%
- EC50 [5]: 112 nM
Compound: CCCCCCCCc1ccc(-c2ccc(C(=O)OCCC#N)cc2)cc1 [Compound 34, 4′-Octyl-biphenyl-4-carboxylic acid 2-cyano-ethyl ester]

- Emax [2]: 42%
- EC50 [3]: 123 nM
Compound: CCCCCCCc1ccc(-c2ccc(C(=O)O)c(F)c2)cc1 [Compound 36, 3-Fluoro-4′-heptyl[1,1′-biphenyl]-4-carboxylic acid]

- Emax [2]: 49%
- EC50 [3]: 135 nM
Compound: CCCCCCCc1ccc(-c2ccc(C(=O)NO)cc2)cc1 [Compound 37, 4′-Heptyl-biphenyl-4-carboxylic acid hydroxyamide]

- % Eff. [6]: 42%
- EC50 [5]: 174 nM
Compound: CCCCCCCOc1ccc(-c2ccc(C(=O)OCCC#N)cc2)cc1 [Compound 39, 4′-Heptyloxy-biphenyl-4-carboxylic acid 2-cyano-ethyl ester]

- pEC50 (Table 2): 6.75
- % Eff. [6]: 82%
Compound: CCCCCCCCc1ccc(-c2ccc(C(=O)OCCc3ccccn3)cc2)cc1 [Compound 40]

- Emax [2]: 78%
- EC50 [3]: 257 nM
Compound: CCCCCCCc1ccc(-c2ccc(C(=O)NN)cc2)cc1 [Compound 45, 4′-Heptyl-biphenyl-4-carboxylic acid hydrazide]

- Emax [4]: 49%
- EC50 [5]: 275 nM
Compound: CCCCCCCCc1ccc(-c2ccc(C(=O)OCc3ccco3)cc2)cc1 [Compound 48, 4′-Octyl-biphenyl-4-carboxylic acid furan-2-ylmethyl ester]

The remaining lines, values behind:

Compound: 2-Fluoro-4-octyl[1,1′-biphenyl]-4-carboxylic acid [Compound 38]
- pEC50 (Table 1): 6.81
- % Eff. [1]: 70%

Compound: 4-Heptyl-3-methyl[1,1′-biphenyl]-4-carboxylic acid [Compound 52]
- pEC50 (Table 1): 6.41
- % Eff. [1]: 45%

Compound: CCCCCCCCc1ccc(-c2ccc(C(=O)OCCc3ccccn3)c(F)c2)cc1 [Compound 5, 3-Fluoro-4′-octyl-biphenyl-4-carboxylic acid 2-pyridin-2-yl-ethyl ester]
- Emax [4]: 124%
- EC50 [5]: 16.2 nM

Compound: CCCCCCCc1ccc(-c2ccc(C(=O)OCCc3ccccn3)c(F)c2)cc1 [Compound 7, 3-Fluoro-4′-heptyl-biphenyl-4-carboxylic acid 2-pyridin-2-yl-ethyl ester]
- Emax [4]: 95%
- EC50 [5]: 19.5 nM

Compound: CCCCCCOc1cc(C)c(-c2ccc(C(=O)O)cc2)cc1C [Compound 11, 4′-(Hexyloxy)-2′,5′-dimethyl[1,1′-biphenyl]-4-carboxylic acid]
- Emax [2]: 78%
- EC50 [3]: 27.5 nM

Compound: CCCCCCNC(=O)COc1nc(-c2ccc(C(=O)O)cc2)sc1C [Compound 13, 4-(4-Hexylcarbamoylmethoxy-5-methyl-thiazol-2-yl)-benzoic acid]
- Emax [2]: 85%
- EC50 [3]: 41.7 nM

Compound: CCCCOCCOc1ccc(-c2ccc(C(=O)O)cc2)cc1 [Compound 18, 4′-(2-Butoxyethoxy)-[1,1-biphenyl]-4-carboxylic acid]
- Emax [2]: 108%
- EC50 [3]: 47.9 nM

Compound: O=C(O)c1ccc(-c2ccc(OCCC=C(C3CC3)C3CC3)cc2)cc1 [Compound 26, 4′[(4,4-Dicyclopropyl-3-butenyl)oxy][1,1-biphenyl]-4-carboxylic acid]
- % Eff. [1]: 36%

Compound: CCCCOCCOc1nc(-c2ccc(C(=O)O)cc2)sc1C [Compound 27, 4-[4-(2-Butoxy-ethoxy)-5-methyl-thiazol-2-yl]-benzoic acid]
- Emax [2]: 95%
- EC50 [3]: 75.9 nM

Compound: CCCCCCCOc1ccc(-c2ccc(C(=O)OCCc3ccccn3)cc2)cc1 [Compound 30, 4′-Heptyloxy-biphenyl-4-carboxylic acid 2-pyridin-2-yl-ethyl ester]
- Emax [4]: 62%
- EC50 [5]: 91.2 nM

Compound: CCCOCCOc1nc(-c2ccc(C(=O)O)cc2)sc1C [Compound 33, 4-[5-Methyl-4-(2-propoxy-ethoxy)-thiazol-2-yl]-benzoic acid]
- Emax [2]: 98%
- EC50 [3]: 110 nM

Compound: CCCCCCCCc1ccc(-c2ccc(C(=O)O)cc2)cc1 [Compound 35]
- pEC50 (Table 1): 6.94
- % Eff. [1]: 83%

Compound: CCCCCCOc1ccc(-c2ccc(C(=O)OCc3ccco3)cc2)cc1 [Compound 41, 4′-Hexyloxy-biphenyl-4-carboxylic acid furan-2-ylmethyl ester]
- Emax [4]: 25%
- EC50 [5]: 178 nM

Compound: CCCCCCCCOc1ccc(-c2ccc(C(=O)OCCC#N)cc2)cc1 [Compound 42, 4′-Octyloxy-biphenyl-4-carboxylic acid 2-cyano-ethyl ester]
- Emax [4]: 46%
- EC50 [5]: 195 nM

Compound: CCCCCCCCOc1ccc(-c2ccc(C(=O)OCc3ccco3)cc2)cc1 [Compound 43, 4′-Octyloxy-biphenyl-4-carboxylic acid furan-2-ylmethyl ester]
- Emax [4]: 67%
- EC50 [5]: 214 nM

Compound: CCCCOCCOc1cc(C)c(-c2ccc(C(=O)O)cc2)cc1C [Compound 44, 4′-(2-Butoxyethoxy)-2′,5′-dimethyl[1,1-biphenyl]-4-carboxylic acid]
- Emax [2]: 41%
- EC50 [3]: 245 nM

Compound: CCCCC(CC)COc1nc(-c2ccc(C(=O)O)cc2)sc1C (stereo not shown) [Compound 46, 4-[4-(2-Ethyl-hexyloxy)-5-methyl-thiazol-2-yl]-benzoic acid]
- Emax [2]: 54%
- EC50 [3]: 263 nM

Compound: O=C(O)c1ccc(-c2ccc(OCCC=C(C3CC3)C3CC3)cc2)cc1 [Compound 47, 4′-(4,4-Dicyclopropyl-but-3-enyloxy)-biphenyl-4-carboxylic acid]
- % Eff. [1]: 58%

Compound: CCCC1CCCC(c2ccc(-c3ccc(C(=O)O)cc3)cc2)CC1 (stereo not shown) [Compound 49]
- pEC50 (Table 1): 6.55
- Emax [2]: 59%

Compound: CCCCCCCCN1CCN(c2ccc(C(=O)O)cc2)CC1 [Compound 50, 4-(4-Octyl-piperazin-1-yl)-benzoic acid]
- Emax [2]: 85%
- EC50 (pEC50, Table 1): 295 nM
